# Measured values taken from ChEMBL document CHEMBL2074153, “Identification of organic anion transporting polypeptide 4 (Oatp4) as a major full-length isoform of the liver-specific transporter-1 (rlst-1) in rat liver” (FEBS Lett, 2000).
# Tests used:
# [1] = molecular target: T1, Solute carrier organic anion transporter family member 1B2 (Rattus norvegicus, UniProt Q9QZX8); test: (§1) TP_TRANSPORTER: uptake in Xenopus laevis oocytes; assay type: functional, cell-based; settings: oocyte
# T1 sequence (Q9QZX8 whole entry): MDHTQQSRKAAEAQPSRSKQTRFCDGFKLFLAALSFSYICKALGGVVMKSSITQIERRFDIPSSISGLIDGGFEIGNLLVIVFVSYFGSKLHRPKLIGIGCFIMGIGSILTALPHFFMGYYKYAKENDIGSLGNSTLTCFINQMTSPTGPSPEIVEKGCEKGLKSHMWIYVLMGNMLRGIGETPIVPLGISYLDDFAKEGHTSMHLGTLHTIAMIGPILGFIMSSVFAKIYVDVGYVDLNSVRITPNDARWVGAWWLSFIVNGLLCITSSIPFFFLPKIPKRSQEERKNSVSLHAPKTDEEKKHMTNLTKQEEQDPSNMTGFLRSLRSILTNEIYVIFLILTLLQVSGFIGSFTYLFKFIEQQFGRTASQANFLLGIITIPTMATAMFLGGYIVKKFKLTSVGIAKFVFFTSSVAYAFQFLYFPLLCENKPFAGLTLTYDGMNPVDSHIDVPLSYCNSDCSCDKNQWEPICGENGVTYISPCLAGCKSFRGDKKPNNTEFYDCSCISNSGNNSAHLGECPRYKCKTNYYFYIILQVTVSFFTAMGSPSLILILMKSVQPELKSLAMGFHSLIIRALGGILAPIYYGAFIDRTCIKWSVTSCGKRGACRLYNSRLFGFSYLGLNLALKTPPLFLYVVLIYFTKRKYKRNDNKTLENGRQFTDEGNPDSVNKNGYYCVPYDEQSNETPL
# [2] = substrate: O=C1OC(c2ccc(O)c(S(=O)(=O)O)c2)(c2ccc(O)c(S(=O)(=O)O)c2)c2c(Br)c(Br)c(Br)c(Br)c21; test: as §1; assay type: functional, cell-based, Oocyte
Molecule,Activity [1],Km [2]
N[C@@H](Cc1cc(I)c(Oc2ccc(O)c(I)c2)c(I)c1)C(=O)O [LIOTHYRONINE],substrate [+],–
N[C@@H](Cc1cc(I)c(Oc2cc(I)c(O)c(I)c2)c(I)c1)C(=O)O [LEVOTHYROXINE],substrate [+],–
Solute carrier organic anion transporter family member 1B2 (Rattus norvegicus) (protein) MDHTQQSRKAAEAQPSRSKQTRFCDGFKLFLAALSFSYICKALGGVVMKSSITQIERRFDIPSSISGLIDGGFEIGNLLVIVFVSYFGSKLHRPKLIGIGCFIMGIGSILTALPHFFMGYYKYAKENDIGSLGNSTLTCFINQMTSPTGPSPEIVEKGCEKGLKSHMWIYVLMGNMLRGIGETPIVPLGISYLDDFAKEGHTSMHLGTLHTIAMIGPILGFIMSSVFAKIYVDVGYVDLNSVRITPNDARWVGAWWLSFIVNGLLCITSSIPFFFLPKIPKRSQEERKNSVSLHAPKTDEEKKHMTNLTKQEEQDPSNMTGFLRSLRSILTNEIYVIFLILTLLQVSGFIGSFTYLFKFIEQQFGRTASQANFLLGIITIPTMATAMFLGGYIVKKFKLTSVGIAKFVFFTSSVAYAFQFLYFPLLCENKPFAGLTLTYDGMNPVDSHIDVPLSYCNSDCSCDKNQWEPICGENGVTYISPCLAGCKSFRGDKKPNNTEFYDCSCISNSGNNSAHLGECPRYKCKTNYYFYIILQVTVSFFTAMGSPSLILILMKSVQPELKSLAMGFHSLIIRALGGILAPIYYGAFIDRTCIKWSVTSCGKRGACRLYNSRLFGFSYLGLNLALKTPPLFLYVVLIYFTKRKYKRNDNKTLENGRQFTDEGNPDSVNKNGYYCVPYDEQSNETPL,–,1.1 µM
